Measurements reported in patent US20160287553A1, “TRANSLATION INHIBITORS IN HIGH-DOSE CHEMO- AND/OR HIGH-DOSE RADIOTHERAPY” (DEUTSCHES KREBSFORSCHUNGSZENTRUM, priority 2013, published 2016).
Entries after “also recorded” stand apart in the source; their conditions may differ.

Experiments:
[1] = test system: p53 protein synthesis; experiment: Metabolic pulse-labeling and immunoprecipitation of p53; assay type: cell-based, human; conditions: T cells, after Etoposide treatment, pulse-labeling (FIG. 6c)
Description: Subsequently, cells were washed in ice-cold PBS, lysed in IP buffer (20 mM Tris-HCl, […], 2 mM EDTA, 1% Triton X-100, protease inhibitors) and centrifuged (10,000 g, 20 min) to clear lysates. Aliquots were taken for input control and lysates were incubated overnight with sepharose-coupled protein A beads, anti-p53 antibody (FL-393; Santa Cruz, Heidelberg, Germany) or isotype control antibody (Sigma-Aldrich, Munich, Germany). Two wash-steps with IP buffer preceded boiling of beads in denaturing sample buffer at 95° C. for […]. Incorporation of […] into p53 protein was detected by the phosphoimaging system FLA-7000 IR (Fujifilm Europe GmbH, Düsseldorf, Germany).
Thus, Roc-A suppresses DNA-damage-induced upregulation of p53 at the translational level.

[2] = test system: malignant cells; experiment: Fold change in cell death on raising the Etoposide dose, malignant cells (FIG. 9a-b); assay type: cell-based; conditions: 75 nM Roc-A in parallel to Etoposide, 6.25 μM to 50 μM, 24 h
Description: (§1) (a) Cells from (b) were grouped into malignant and non-malignant cells. Shown are means of three independent experiments. Abbreviations; HSPCs=hematopoietic stem and progenitor cells. (c-d) Malignant and non-malignant cells were exposed to ionizing radiation (IR) in the presence of 75 nM Roc-A or solvent (DMSO) and cell death was determined after 24 h by DNA fragmentation. Depicted is the fold-change in cell death that was measured when doses of IR were increased from 2 Gy to 10 Gy. (c) Cells from (d) were grouped into malignant and non-malignant cells. Shown are means of three independent experiments.
(§2) DNA fragmentation was determined by FACS.
(§3) Roc-A specifically prevents the cause of chemotherapeutic and radiation-induced side-effects, i.e., the death of healthy cells. […] Consequently, high-dose therapy is not possible, as side effects would be too high.

[3] = test system: p53-knockdown T cells; experiment: Etoposide-induced cell death in p53 siRNA knock-down T cells; assay type: cell-based, human; conditions: Etoposide 50 μM, Roc-A 75 nM, 24 h (FIG. 4a)
Description: as §2
siRNAs specific for p53 mRNA was 5′-[…]tt-3′ (SEQ ID NO: 1; [Applied Biosystems, Darmstadt, Germany]). 1.5×10^7 human peripheral blood T cells were transfected with 2 μM of p53 siRNA or of scrambled siRNA (Qiagen, Hilden, Germany) using Amaxa Human T Cell Nucleofector Kit (Lonza, Basel, Switzerland) according to the manufacturer's instructions. The Amaxa Nucleofector program U-014 was used for transfection.
To further investigate the role of p53 in Roc-A-mediated protection of T cells against DNA damage-induced apoptosis, we performed a p53 knock-down experiment using a siRNA approach (FIG. 4a, upper panel). […] Therefore, we examined the effect of Roc-A on p53 knock-out (KO) cells.

[4] = test system: non-malignant cells; experiment: Fold change in cell death on raising the Etoposide dose, non-malignant cells (FIG. 9a-b); assay type: cell-based; conditions: 75 nM Roc-A in parallel to Etoposide, 6.25 μM to 50 μM, 24 h
Description: as §1, §2, §3

[5] = test system: p53; experiment: p53 protein expression by immunoblot; assay type: cell-based, human
Description: Immunoblot analysis was carried out as previously described (Polier et al., Chem Biol. 2012; 19: 1093-1104). Briefly, 4-20×10^6 cells were treated with different reagents as indicated and lysed in RIPA buffer (50 mM Tris HCl, 137 mM NaCl, 0.5% Na Deoxycholate, 1% Triton X-100, 0.1% SDS, protease inhibitors). Proteins were separated by SDS-PAGE and transferred to a nitrocellulose membrane (Amersham Biosciences, Little Chalfon, UK) using a semi-dry blotting approach. The following antibodies were used: p53 (DO-1) antibody was purchased from Santa Cruz Biotechnology (Heidelberg, Germany). Tubulin and actin (A5441) antibodies were purchased from Sigma-Aldrich (St. Louis, USA).
The transcription factor p53 is a major regulator of DNA damage-induced apoptosis (Lowe et al., Cell. 1993; 74: 957-967). Therefore, we investigated the effect of Roc-A on the expression level of p53.
p53 protein expression can be regulated at the level of transcription, translation, and ubiquitination-mediated degradation (Marine & Lozano, Cell Death Differ. 2010; 17: 93-102). It has been shown that upon DNA damage p53 undergoes post-translational modifications leading to its deubiquitination and, thus, stabilization (Lee & Gu, Cell Death Differ. 2010; 17: 86-92). To investigate whether Roc-A could decrease p53 stability, we treated T cells with the proteasome inhibitor Bortezomib to block proteasome-mediated degradation.

[6] = test system: γ-H2AX; assay type: cell-based; conditions: Roc-A 75 nM, T cells (FIG. 2a-b)
Description: DNA damage was determined by quantification of γ-H2AX foci formation and by alkaline single-cell gel electrophoresis assay (comet assay). For γ-H2AX staining, cells were treated as indicated, fixed in 3% formaldehyde and permeabilized in 90% methanol. Following storage at −20° C. overnight, cells were incubated with mouse serum to block unspecific binding and stained with antibody directed against γ-H2AX (AlexaFluor 488-coupled, 2F3 [BioLegend, Fell, Germany]), or with isotype control antibody (AlexaFluor 488-coupled [BioLegend, Fell, Germany]). The amount of γ-H2AX foci formation was determined by FACS measurement. […] Nuclei were stained with DAPI mounting medium (Dianova, Hamburg, Germany). Comet assays were carried out as previously described (Greve et al., PloS one. 2012; 7: e47185). Briefly, electrophoresis of cellular genomic DNA was performed under alkaline conditions at 4° C. The amount of DNA damage was measured by “Olive Tail Moment”. Analysis of cellular DNA damage was carried out by fluorescence microscopy, using a fully automated cell scanning system Metafer-4 (Metasystems, Altlutβheim, Germany).
To address this question, we determined the level of the DNA-damage marker γ-H2AX, which is generated around the site of a DNA double-strand break (Rogakou et al., J Biol Chem. 1998; 273: 5858-5868).

[7] = test system: EU-3 (acute lymphoblastic leukemia), WT p53; experiment: Etoposide-induced cell death in EU-3; assay type: cell-based, human; conditions: EU-3 (FIG. 5b)
Description: as §2
(§4) Since Roc-A-mediated protection of non-malignant cells from DNA-damage-induced cell death is largely p53-dependent, we predicted that Roc-A would not protect cancer cells which have non-functional p53. […] 1997; 19: 243-253), Reh (Zhou et al, loc cit.), SKW6.4 (Barbarotto et al., J Cell Biochem. 2008; 104: 595-605) and NCI-H209 (Fujita et al. Int J Oncol. 1999; 15: 927-934) which have a WT p53 protein.

[8] = test system: human peripheral blood B cells; experiment: Etoposide-induced apoptosis in B cells; assay type: cell-based; conditions: B cells (FIG. 1c)
Description: as §2
Next, we asked whether Roc-A could also protect other normal primary cells from DNA damage-induced toxicity. To address this question, we examined the protective effect of Roc-A on Etoposide-treated human peripheral blood B cells, NK cells, neutrophils, cardiomyocytes and murine hematopoietic stem and progenitor cells (HSPCs).

[9] = test system: DND-41 (T cell leukemia), p53 mutated; experiment: Etoposide-induced cell death in DND-41; assay type: cell-based, human; conditions: DND-41 (FIG. 5a)
Description: as §2, §4

## COc1ccc([C@@]23Oc4cc(OC)cc(OC)c4[C@]2(O)[C@H](O)[C@H](C(=O)N(C)C)[C@H]3c2ccccc2)cc1 [Roc-A, (1R,2R,3S,3aR,8bS)-1,8b-dihydroxy-6,8-dimethoxy-3a-(4-methoxyphenyl)-N,N-dimethyl-3-phenyl-2,3-dihydro-1H-cyclopenta[b][1]benzofuran-2-carboxamide]
[1]
  [35S]methionine incorporation into the p53 protein: inhibits p53 protein translation; also recorded: suppressed [^35S]methionine incorporation into the p53 protein
[2]
  Change in cell death on increased Etoposide doses with Roc-A: increased cell death in malignant cells
[3]
  Etoposide-induced apoptosis in p53-knockdown cells: could still further down-regulate Etoposide-induced apoptosis in p53-knockdown cells
[4]
  Change in cell death on increased Etoposide doses with Roc-A: only resulted in increased cell death in malignant cells
[5]; B cells (FIG. 3d)
  Etoposide-induced p53 increase: inhibits Etoposide-induced p53 upregulation; also recorded: suppressed
[5]; NK cells (FIG. 3e)
  Etoposide-induced p53 increase: inhibits Etoposide-induced p53 upregulation; also recorded: suppressed
[5]; T cells (FIG. 3b, f)
  p53 upregulation by IR, Bleomycin, Teniposide, Doxorubicin: inhibits Etoposide-(a), Bleomycin-, Teniposide- and Doxorubicin-(b) induced p53 upregulation in T cells; also recorded: inhibition was also observed
[5]; T cells, 50 μM Etoposide, 75 nM Roc-A (FIG. 3c)
  Upregulation of p53, kinetic analysis: could inhibit upregulation of p53 at all time-points analyzed
[5]; T cells, increasing Etoposide, different concentrations of Roc-A (FIG. 3a)
  Etoposide-induced p53 protein expression: inhibits Etoposide-(a), Bleomycin-, Teniposide- and Doxorubicin-(b) induced p53 upregulation in T cells; also recorded: p53 expression was blocked in a dose-dependent manner
[6]
  Effect on Etoposide-induced γ-H2AX foci formation: does not prevent Etoposide-induced increase in γ-H2AX; also recorded: did not block Etoposide-induced γ-H2AX foci formation
[7]
  Protection against Etoposide-induced cell death: protected by Roc-A from Etoposide-induced cell death but to a lesser extent than non-malignant cells
[8]
  Protection against Etoposide-induced apoptosis: protected
[9]
  Protection against Etoposide-induced cell death: did neither protect
